The pIC50 is the IC50 on a negative log10 scale, so that one unit is a factor of ten.

One series concerns T8 resistant cells. Kind of series: Cytotoxicity, sulphorhodamine (SRB) assay, T8 resistant (BCRP overexpressing) cells. In kind it is cell-based, human. The conditions noted are these: for pIC50: T8 resistant cells; for ratio −/+ GF120918 (T8): IC50 without / with 2 μM GF120918, T8. The method, then:
(§1) Cytotoxicity was Determined Using the Sulphorhodamine (SRB) Assay. Cells were plated in 96-wells plates, 1500 cells/well. Cells were cultured for 48 h at 37° C. and 5% CO2 in the absence of drugs. Then, in a serial dilution from approximately 1 μM to approximately 0.05 nM drugs were added, and cells were cultured for another 5 days at 37° C. and 5% CO2 Next cells are fixated in the plate, washed, and coloured with SRB. After 20 min unbound SRB is washed away using 0.1 M acetic acid. SRB that is bound to the cells is dissolved in 10 mM Tris-HCl buffer. Using a 96-well plate reader the absorbance at 540 nm is measured. For each drug the IC50 value was determined. Results are the mean of at least 3 experiments.

A further series concerns IGROV1 parental cells. The series is described as follows: Cytotoxicity, sulphorhodamine (SRB) assay, IGROV1 parental cells. The format is cell-based, human. The conditions noted are these: for pIC50: IGROV1 parental cells; for ratio −/+ GF120918 (IGROV1): IC50 without / with 2 μM GF120918, IGROV1. On the procedure:
as §1

Series [1] can be described thus: Clinical trial: oral topotecan with or without GF120918, plasma levels. In kind it is in vivo. Conditions: three patients, topotecan 1.0 mg/m2 oral, with or without oral GF120918 (1000 mg). The method, then:
In this example the first results of a clinical trial are shown. Three patients received topotecan orally at a dosis of 1.0 mg.m^−2. Topotecan was administered with or without GF120918 (1000 mg). For illustrative purposes, the plasma concentration vs. time is shown for one patient in FIG. 2. In FIG. 3 the average including the standard deviation is shown for all three patients.

A short description of series [2]: Effect of GF120918 on oral bioavailability of topotecan in mdr1a/1b (-/-) mice. The format is in vivo. Conditions: topotecan 1 mg/kg oral, GF120918 50 mg/kg oral 15 min prior, plasma. An excerpt:
The tests with mice assessed the bioavailability of the drug in mdr1a/1b double knock out mice in the presence and the absence of a BCRP inhibitor. The bioavailability tests can also be carried out with either MRP and/or P-gp knock out mice thus enabling assessment of whether any effect found due to the presence of the bioinhibitor is due solely to BCRP, not due to P-gp and/or MRP. Thus it can be determined whether the particular drug transported is transported using one or more transport systems. The drug to be transported can be provided with a detectable marker to assess where it is located and to be able to quantitate it. Some drugs can be detected and quantitated in plasma without use of a detectable marker. The methodology employed is analogous to that disclosed in the Lancet article discussed above and is also described in Br. J. Cancer 1997, 76: 1181–1183. The methodology is thus considered to be incorporated by reference and is considered enabled to a person skilled in the art. […]
GF120918 was suspended in a hydroxypropylmethylcellulose (10 g/l): Tween 80 (2% v/v): H2O (0.5:1:98.5 v/v/v) formulation for oral administration, at 5 mg.ml^−1. […] Topotecan levels in plasma were determined by HPLC analysis as described by Rosing et al., 1995, J. Chromatography, 668: 107–115, and are depicted in FIG. 1.

Setting [3] is: Homo sapiens, without GF120918, read-out: T8 IC50.
Where [4] appears, read: + 2 μM GF120918, read-out: T8 + GF120918 IC50.
The mark [5] stands for this setting: Homo sapiens, IGROV-1, 120 h, without GF120918, 5 days drug exposure, read-out: IGROV1 IC50.
Where [6] appears, read: + 2 μM GF120918, read-out: IGROV1 + GF120918 IC50.
Where [7] appears, read: without GF120918, read-out: T8 IC50.
Where [8] appears, read: without GF120918, 5 days drug exposure, read-out: IGROV1 IC50.

SMILES strings stand for the structures. pIC50: −log10 of the molar value. Read-outs that look alike come from different tables or passages of the source.

With `CC[C@@]1(O)C(=O)OCc2c1cc1n(c2=O)Cc2cc3c(CN(C)C)c(O)ccc3nc2-1` [topotecan], in the series with T8 resistant cells (+ 2 μM GF120918), the “Rf (resistance factor) T8 + GF120918” value is given as 4.3. Also, the pIC50 in the series on T8 resistant cells (setting [3]) is 6.01; in the series on T8 resistant cells (setting [4]), 7.40; in the series on IGROV1 parental cells (setting [5]), 8.05; in the series with IGROV1 parental cells (setting [6]) it was 8.03. The “ratio −/+ GF120918 (T8)” value with T8 resistant cells worked out at 24.4. Moreover, in the series on T8 resistant cells (without GF120918), the “Rf (resistance factor, IC50 T8 / IC50 IGROV1)” value was found to be 110. The “ratio −/+ GF120918 (IGROV1)” value in the series on IGROV1 parental cells was 0.97. Moreover, in series [1], the “systemic exposure (AUC) to oral topotecan” value is given as “increased systemic exposure”. Also, the “increase in the area under the curve (AUC) of oral topotecan” value in series [2] is “approximately 6 fold”.
As to `CCc1c2c(nc3ccc(O)cc13)-c1cc3c(c(=O)n1C2)COC(=O)[C@]3(O)CC` [SN-38], in the series with T8 resistant cells (+ 2 μM GF120918), the “Rf (resistance factor) T8 + GF120918” value turned out to be 6.0. Besides, the “ratio −/+ GF120918 (T8)” value with T8 resistant cells was 64.1. Moreover, the pIC50 with T8 resistant cells (setting [4]) was 8.18; in the series on T8 resistant cells (setting [7]), 6.38; in the series with IGROV1 parental cells (setting [6]) it was 8.96; with IGROV1 parental cells (setting [8]), 8.74. For the same compound, in the series on T8 resistant cells (without GF120918), the “Rf (resistance factor, IC50 T8 / IC50 IGROV1)” value turned out to be 231. The “ratio −/+ GF120918 (IGROV1)” value in the series with IGROV1 parental cells is on record as 1.66.
With `CC[C@@]1(O)C(=O)OCc2c1cc1n(c2=O)Cc2c-1nc1cc(F)c(C)c3c1c2C(N)CC3.CS(=O)(=O)O` (stereo partly shown) [DX8951f], the “Rf (resistance factor) T8 + GF120918” value in the series on T8 resistant cells (+ 2 μM GF120918) is given as 2.3. Moreover, the “ratio −/+ GF120918 (T8)” value in the series on T8 resistant cells is listed as 7.4. Moreover, the pIC50 in the series with T8 resistant cells (setting [4]) is 9.41; in the series with T8 resistant cells (setting [7]), 8.54; with IGROV1 parental cells (setting [6]), 9.77; in the series with IGROV1 parental cells (setting [8]), 10.00. Also, the “Rf (resistance factor, IC50 T8 / IC50 IGROV1)” value in the series on T8 resistant cells (without GF120918) is 29. In the series with IGROV1 parental cells, the “ratio −/+ GF120918 (IGROV1)” value stood at 0.60.
As to `CC[C@@]1(O)C(=O)OCc2c1cc1n(c2=O)Cc2c-1nc1ccccc1c2CC[Si](C)(C)C` [BNP1350], the “Rf (resistance factor) T8 + GF120918” value in the series with T8 resistant cells (+ 2 μM GF120918) came out at 4.1. Moreover, the pIC50 in the series with T8 resistant cells (setting [3]) was 8.31; in the series on T8 resistant cells (setting [4]) it was 8.46; in the series on IGROV1 parental cells (setting [5]), 9.36; with IGROV1 parental cells (setting [6]), 9.08. Moreover, the “ratio −/+ GF120918 (T8)” value in the series on T8 resistant cells is 1.4. In addition, the “Rf (resistance factor, IC50 T8 / IC50 IGROV1)” value in the series on T8 resistant cells (without GF120918) is reported as 11. The “ratio −/+ GF120918 (IGROV1)” value in the series on IGROV1 parental cells is reported as 0.53.
Take `CC[C@@]1(O)C(=O)OCc2c1cc1n(c2=O)Cc2c-1nc1cc3c(cc1c2CN1CCN(C)CC1)OCCO3` [GG211]: the “Rf (resistance factor) T8 + GF120918” value in the series with T8 resistant cells (+ 2 μM GF120918) is recorded as 5.3. In the series with T8 resistant cells, the “ratio −/+ GF120918 (T8)” value was determined as 4.9. For the same compound, the pIC50 was 8.34 in the series with T8 resistant cells (setting [4]), 7.65 in the series on T8 resistant cells (setting [7]), 9.06 in the series with IGROV1 parental cells (setting [6]) and 9.19 with IGROV1 parental cells (setting [8]). Also, in the series with T8 resistant cells (without GF120918), the “Rf (resistance factor, IC50 T8 / IC50 IGROV1)” value worked out at 35. The “ratio −/+ GF120918 (IGROV1)” value in the series with IGROV1 parental cells was found to be 0.74.
As to `COc1cc2c(cc1OC)CN(CCc1ccc(NC(=O)c3cccc4c(=O)c5cccc(OC)c5[nH]c34)cc1)CC2` [GF120918], in the series with T8 resistant cells (addition of 2 μM GF120918), the “reversal of resistance of T8 for topoisomerase I drugs” value is “for the greater part reversed”. Besides, the “effect of GF120918 on the sensitivity of the parental cell line IGROV1” value with IGROV1 parental cells (2 μM GF120918, topoisomerase I drugs) is given as “no or very little effect”.
As to `CCc1c2c(nc3ccc(OC(=O)N4CCC(N5CCCCC5)CC4)cc13)-c1cc3c(c(=O)n1C2)COC(=O)[C@]3(O)CC` [CPT11, irinotecan], in the series with T8 resistant cells (+ 2 μM GF120918), the “Rf (resistance factor) T8 + GF120918” value is given as 4.7. The pIC50 with T8 resistant cells (setting [3]) is 4.47; with T8 resistant cells (setting [4]) it was 5.52; with IGROV1 parental cells (setting [5]), 6.26; in the series with IGROV1 parental cells (setting [6]) it was 6.19. Also, in the series on T8 resistant cells, the “ratio −/+ GF120918 (T8)” value was 11.2. In the series with T8 resistant cells (without GF120918), the “Rf (resistance factor, IC50 T8 / IC50 IGROV1)” value turned out to be 62. Moreover, the “ratio −/+ GF120918 (IGROV1)” value with IGROV1 parental cells came to 0.84.

The record behind these values is patent publication US7030132B2, “Method of improving bioavailability of orally administered drugs, a method of screening for enhancers of such bioavailability and novel pharmaceutical compositions for oral delivery of drugs” (Cancer Research Ventures Limited, priority 1999, dated 2006).
